Measured values: patent US20240116946A1 (Gilead Sciences, Inc., priority 2022, published 2024)
Read-outs that look alike come from different tables or passages of the source.

Assays:
[1] = molecular target: recombinant SARS-CoV-2 Main protease (Mpro) (Severe acute respiratory syndrome coronavirus 2 (2019-nCoV) (SARS-CoV-2), UniProt P0DTD1); assay: Cov Mpro Biochemical IC50 Assay; conditions: read-out: MPro IC50
[2] = test system: SARS-CoV-2-NLuc; assay: microbe, parasite or virus in culture; type: cell-based, SARS Coronavirus 2
[3] = recombinant SARS-CoV-2 Mpro 7.5 nM, fluorogenic peptide substrate 40 μM
[4] = Severe acute respiratory syndrome coronavirus, 48 h, read-out: MPro EC50
[5] = Severe acute respiratory syndrome coronavirus, 48 h; read-out: MPro EC50
[6] = recombinant SARS-CoV-2 Mpro, fluorogenic peptide substrate

| SMILES | IC50 [1, 3] [µM] | EC50 [2, 4] [µM] | EC50 [2, 5] [µM] | IC50 [1, 6] [µM] | EC50 ([2]; read-out: MPro EC50) [µM] |
| --- | --- | --- | --- | --- | --- |
| COCCn1ncc2cncc(-n3c(=O)c4sc(-c5cc(OC)c(F)cc5Cl)cc4n(CCC#N)c3=O)c21 [Example 912] | 0.0049 | 0.00436 |  |  |  |
| COc1cc(-c2cc3c(s2)c(=O)n(-c2cncc4ccccc24)c(=O)n3CC#N)c(Cl)cc1F [Example 630, 2-[6-(2-chloro-4-fluoro-5-methoxy-phenyl)-3-(4-isoquinolyl)-2,4-dioxo-thieno[3,2-d]pyrimidin-1-yl]acetonitrile] | 0.00631 |  | 0.00935 |  |  |
| COc1cc(-c2cc3c(s2)c(=O)n(-c2cncc4cnn(C5CC5)c24)c(=O)n3CC#N)c(Cl)cc1F [Example 691] | 0.00307 | 0.00291 |  |  |  |
| Cn1cc(-c2cccc(Cl)c2-c2ccc3c(=O)n(-c4cncc5ccccc45)c(=O)[nH]c3c2)c(C#N)n1 [Example 267] |  | 0.0355 |  | 0.0241 |  |
| N#CCCn1c(=O)n(-c2cncc(CO)c2)c(=O)c2sc(-c3ccccc3C#N)cc21 [Example 1101] | 0.0363 | > 1 |  |  |  |
| Cn1ncc2cncc(-n3c(=O)c4sc(-c5ccc(F)cc5Cl)cc4n(CCC#N)c3=O)c21 (single isomer, unassigned) [Example 956, 3-(6-(2-chloro-4-fluorophenyl)-3-(1-methyl-1H-pyrazolo[4,3-c]pyridin-7-yl)-2,4-dioxo-3,4-dihydrothieno[3,2-d]pyrimidin-1(2H)-yl)propanenitrile] | > 1 |  |  |  | 0.699 |
| Cc1ccc2cncc(-n3c(=O)c4sc(-c5ccccc5Cl)cc4n(CCC#N)c3=O)c2n1 [Example 907] | 0.00581 | 0.00697 |  |  |  |
| COc1ccc(Cl)c(-c2cc3[nH]c(=O)n(-c4cncc5nn(CC(F)(F)F)cc45)c(=O)c3s2)c1 [Example 501] | 0.0148 |  | 0.0939 |  |  |
| Cc1c(Cl)cncc1-n1c(=O)[nH]c2cc(-c3ccccc3Cl)ccc2c1=O [Example 140, 3-(5-chloro-4-methylpyridin-3-yl)-7-(2-chlorophenyl)quinazoline-2,4(1H,3H)-dione] |  | 0.429 |  | > 100 |  |
| CN1C(=O)CC(C)(C)c2cc(-c3cccc(Cl)c3-c3ccc4c(=O)n(-c5cncc6ccccc56)c(=O)[nH]c4c3)ccc21 [Example 315] |  | 0.0402 |  | 0.042 |  |
| Cc1cncc(-n2c(=O)[nH]c3cc(-c4ccccc4Cl)ccc3c2=O)c1OCC(F)(F)F [Example 374] |  | 1.24 |  | 1.13 |  |
| COc1cc(-c2cc3c(s2)c(=O)n(-c2cncc4ccccc24)c(=O)n3CCC#N)c(Cl)cc1F (single isomer, unassigned) [Example 638, 3-[6-(2-chloro-4-fluoro-5-methoxy-phenyl)-3-(4-isoquinolyl)-2,4-dioxo-thieno[3,2-d]pyrimidin-1-yl]propanenitrile] | 0.192 |  |  |  | 0.0606 |
| COc1ccc(C#N)c(-c2ccc3c(=O)n(-c4cncc5ccccc45)c(=O)[nH]c3c2)c1 [Example 308, 2-[3-(4-isoquinolyl)-2,4-dioxo-1H-quinazolin-7-yl]-4-methoxy-benzonitrile] |  | 0.0312 |  | 0.0162 |  |
| Cn1nnc2cncc(-n3c(=O)c4sc(-c5ccc(F)cc5Cl)cc4n(CCC#N)c3=O)c21 (single isomer, unassigned) [Example 1029, 3-[6-(2-chloro-4-fluoro-phenyl)-3-(1-methyltriazolo[4,5-c]pyridin-7-yl)-2,4-dioxo-thieno[3,2-d]pyrimidin-1-yl]propanenitrile] | 0.582 |  |  |  | > 1 |
| CC(C)COc1ccc(Cl)c(-c2ccc3c(=O)n(-c4cncc5ccccc45)c(=O)[nH]c3c2)c1 [Example 256] |  | 0.699 |  | 3.99 |  |
| COc1cnc(C#N)c(-c2cc3[nH]c(=O)n(-c4cncc5ccccc45)c(=O)c3s2)c1 [Example 541] | 0.0176 | 0.237 |  |  |  |
| COc1ccc(Cl)c(-c2ccc3c(=O)n(-c4cncc5ccccc45)c(=O)[nH]c3c2)c1 (single isomer, unassigned) [Example 476, 7-(2-chloro-5-methoxy-phenyl)-3-(4-isoquinolyl)-1H-quinazoline-2,4-dione] | 0.258 |  |  |  | 0.259 |
| Cc1nc2cncc(-n3c(=O)c4sc(-c5ccc(F)cc5Cl)cc4n(CCC#N)c3=O)c2n1C (single isomer, unassigned) [Example 965, 3-(6-(2-chloro-4-fluorophenyl)-3-(1,2-dimethyl-1H-imidazo[4,5-c]pyridin-7-yl)-2,4-dioxo-3,4-dihydrothieno[3,2-d]pyrimidin-1(2H)-yl)propanenitrile] | 0.0201 |  |  |  | 0.0783 |
| COc1ccc(-c2cc3[nH]c(=O)n(-c4cncc5ccccc45)c(=O)c3s2)c(C#N)c1 [Example 539] | 0.141 | 0.675 |  |  |  |
| Cc1noc(C)c1-c1cc2[nH]c(=O)n(-c3cncc(C4CC4)c3)c(=O)c2s1 [Example 368] |  |  | 1.92 | 0.411 |  |
| O=c1[nH]c2cc(-c3ccccc3Cl)sc2c(=O)n1-c1cncc2ccc(N3CCN(C4COC4)CC3)cc12 [Example 392] |  | 0.00675 |  | < 0.00254 |  |
| O=c1[nH]c2cc(-c3c(Cl)cccc3-c3cn(CC(F)F)nn3)ccc2c(=O)n1-c1cncc2ccccc12 [Example 292] |  | 0.169 |  | 0.12 |  |
| COc1ccc(Cl)c(-c2cc3[nH]c(=O)n(-c4cncc5cnn(C)c45)c(=O)c3s2)c1 [Example 498] | < 0.00254 | < 0.00596 |  |  |  |
| COc1cc(-c2cc3c(s2)c(=O)n(-c2cnnc(C)c2)c(=O)n3CCC#N)c(Cl)cc1F [Example 988] | 0.0634 | 0.259 |  |  |  |

| SMILES | IC50 [1, 3] [µM] | EC50 [2, 4] [µM] | EC50 [2, 5] [µM] | IC50 [1, 6] [µM] | EC50 ([2]; read-out: MPro EC50) [µM] |
| --- | --- | --- | --- | --- | --- |
| CC(C)(C)OC(=O)N1CCn2ncc(-c3cccc(Cl)c3-c3ccc4c(=O)n(-c5cncc6ccccc56)c(=O)[nH]c4c3)c2C1 [Example 271] |  | 0.208 |  | 0.155 |  |
| Cc1ccc(-c2cc3[nH]c(=O)n(-c4cncc5ccccc45)c(=O)c3s2)c(Cl)n1 [Example 289] |  | 0.119 |  | 0.0417 |  |
| O=c1[nH]c2cc(-c3cccc4c3CCC4)ccc2c(=O)n1-c1cncc2ccccc12 [Example 171, 7-(2,3-dihydro-1H-inden-4-yl)-3-(isoquinolin-4-yl)quinazoline-2,4(1H,3H)-dione] |  | 4.2 |  | 3.79 |  |
| O=c1[nH]c2cc(-c3c(Cl)cccc3Cl)sc2c(=O)n1-c1cncc2ccccc12 [Example 110, 6-(2,6-dichlorophenyl)-3-(isoquinolin-4-yl)thieno[3,2-d]pyrimidine-2,4(1H,3H)-dione] |  |  | 0.275 | 0.372 |  |
| O=c1[nH]c2sc(-c3ccccc3Cl)nc2c(=O)n1-c1cncc2ccccc12 [Example 78] |  | 9.53 |  | 0.404 |  |
| COc1cc(-c2cc3c(s2)c(=O)n(-c2cncc4nccn24)c(=O)n3CCC#N)c(Cl)cc1F [Example 1000] | 0.0106 | 0.0201 |  |  |  |
| O=c1[nH]c2cc(-c3ccccc3Cl)sc2c(=O)n1-c1cncc2ccc(N3CCC(O)(C(F)(F)F)CC3)cc12 [Example 427] | 0.0156 | 0.024 |  |  |  |
| COC(=O)Cn1c(=O)n(-c2cncc3ccccc23)c(=O)c2sc(-c3ccccc3Cl)cc21 [Example 220] |  | 0.0866 |  | 0.0291 |  |
| N#Cc1ccccc1-c1cc(F)c2c(=O)n(-c3cncc4ccccc34)c(=O)[nH]c2c1 [Example 223] |  |  | 0.414 | 0.101 |  |
| Cc1cncc(-n2c(=O)[nH]c3cc(-c4ccccc4Cl)sc3c2=O)c1C [Example 132] |  | 0.0274 |  | 0.00912 |  |
| COc1cc(-c2cc3[nH]c(=O)n(-c4cncc5ccccc45)c(=O)c3s2)c(C#N)cn1 [Example 542] | 0.249 | 1.2 |  |  |  |
| N#CCn1c(=O)n(-c2cncc3ccccc23)c(=O)c2sc(-c3ccc(F)cc3Cl)cc21 [Example 727] | 0.00309 | 0.00836 |  |  |  |
| Cc1cc(-c2cccc(Cl)c2-c2ccc3c(=O)n(-c4cncc5ccccc45)c(=O)[nH]c3c2)cnn1 [Example 234] |  | 0.0212 |  | < 0.00567 |  |
| O=c1ccc2cncc(-n3c(=O)[nH]c4cc(-c5ccccc5Cl)sc4c3=O)c2[nH]1 [Example 452, 6-(2-chlorophenyl)-3-(2-oxo-1,2-dihydro-1,6-naphthyridin-8-yl)thieno[3,2-d]pyrimidine-2,4(1H,3H)-dione] | 0.00924 | 0.0825 |  |  |  |
| COc1ccc(C#N)c(-c2cc3[nH]c(=O)n(-c4cncc5nc(C67CC(F)(C6)C7)n(C)c45)c(=O)c3s2)c1 [Example 437] | 0.535 | 10.6 |  |  |  |
| COc1ccc(-c2cc(C)c3ncnn3c2)c(-c2ccc3c(=O)n(-c4cncc5ccccc45)c(=O)[nH]c3c2)c1 [Example 568, 3-(4-isoquinolyl)-7-[5-methoxy-2-(8-methyl-[1,2,4]triazolo[1,5-a]pyridin-6-yl)phenyl]-1H-quinazoline-2,4-dione] | 5.67 | 2.64 |  |  |  |
| COc1cc(C#N)c(-c2cc3[nH]c(=O)n(-c4cncc5ccccc45)c(=O)c3s2)cc1OC [Example 544] | 0.0168 | 0.202 |  |  |  |
| COc1ccc(Cl)c(-c2cc3[nH]c(=O)n(-c4cncc5c4OCCC5)c(=O)c3s2)c1 [Example 586] | 0.0262 | 0.0543 |  |  |  |
| CCn1cc(-c2cccc(Cl)c2-c2ccc3c(=O)n(-c4cncc5ccccc45)c(=O)[nH]c3c2)c(C(F)(F)F)n1 [Example 281] |  | 0.0395 |  | 0.0718 |  |
| Cc1c(Cl)cccc1-c1cc2[nH]c(=O)n(-c3cncc4ccccc34)c(=O)c2s1 [Example 12] |  | 0.943 |  | 7.45 |  |
| COc1cc(-c2cc(OC)c3c(=O)n(-c4cncc5ccccc45)c(=O)[nH]c3c2)c(C#N)cc1F [Example 679] | 0.0254 | 0.0801 |  |  |  |
| Cc1nn(C)cc1-c1cc2[nH]c(=O)n(-c3cncc4ccccc34)c(=O)c2s1 [Example 363] |  | 0.785 |  | 0.129 |  |
| COc1cnc(Cl)c(-c2cc3c(s2)c(=O)n(-c2cncc4nnn(C)c24)c(=O)n3CCC#N)c1 [Example 884] | 0.0314 | 0.126 |  |  |  |
